Data as given in PubChem BioAssay (NCI).
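A five-concentration, 48-hour dose response in 96-well plates underlies each endpoint, interpolated linearly between surrounding concentrations. TGI: concentration producing complete growth inhibition.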

What was measured:
Assay in all cases: inhibition of tumour cell growth, NCI panel, 48 h
[1] = tested on: HCT-116 colon
[2] = tested on: K-562 leukemia
[3] = tested on: SK-MEL-2 melanoma
[4] = tested on: RXF 393 renal
[5] = tested on: MCF7 breast
[6] = tested on: SNB-19 CNS
[7] = tested on: NCI/ADR-RES ovarian
[8] = tested on: NCI-H23 lung
[9] = tested on: A498 renal
[10] = tested on: HS 578T breast
[11] = tested on: BT-549 breast
[12] = tested on: DU-145 prostate
[13] = tested on: IGROV1 ovarian
[14] = tested on: RPMI-8226 leukemia
[15] = tested on: NCI-H226 lung
[16] = tested on: KM12 colon
[17] = tested on: PC-3 prostate
[18] = tested on: T-47D breast
[19] = tested on: CCRF-CEM leukemia
[20] = tested on: UO-31 renal
[21] = tested on: UACC-62 melanoma
[22] = tested on: HT29 colon
[23] = tested on: SF-295 CNS
[24] = tested on: HOP-92 NSCLC
[25] = tested on: SW-620 colon
[26] = tested on: EKVX NSCLC
[27] = tested on: MDA-N
[28] = tested on: UACC-257 melanoma
[29] = tested on: HOP-62 NSCLC
[30] = tested on: SK-MEL-5 melanoma
[31] = tested on: MDA-MB-435
[32] = tested on: OVCAR-5 ovarian
[33] = tested on: SF-539 CNS
[34] = tested on: SK-OV-3 ovarian
[35] = tested on: A549 NSCLC
[36] = tested on: SR leukemia
[37] = tested on: CAKI-1 renal
[38] = tested on: SK-MEL-28 melanoma
[39] = tested on: NCI-H522 lung
[40] = tested on: HCT-15 colon
[41] = tested on: MALME-3M melanoma
[42] = tested on: OVCAR-4 ovarian
[43] = tested on: OVCAR-3 ovarian
[44] = tested on: COLO 205 colon
[45] = tested on: MDA-MB-231 breast
[46] = tested on: TK-10 renal
[47] = tested on: OVCAR-8 ovarian
[48] = tested on: SF-268 CNS
[49] = tested on: SNB-75 CNS
[50] = tested on: MOLT-4 leukemia
[51] = tested on: 786-0 renal
[52] = tested on: U251 CNS
[53] = tested on: LOX IMVI melanoma
[54] = tested on: ACHN renal
[55] = tested on: NCI-H460 lung
[56] = tested on: SN12C renal
[57] = tested on: HL-60(TB) leukemia
[58] = tested on: M14 melanoma
[59] = tested on: HCC-2998 colon

Work on `N#CC1CCCC2SC(F)(F)C(F)(F)C12` (stereo unspecified) yielded a TGI [1] of over 100 µM, a TGI [2] of over 78.3 µM and a TGI [3] of over 100 µM. The TGI [4] was over 100 µM, the TGI [5] was over 100 µM and the TGI [6] was over 100 µM. It also gave a TGI [7] of over 100 µM, a TGI [8] of over 100 µM and a TGI [9] of over 100 µM. For the same molecule, the TGI [10] was over 100 µM, the TGI [11] was over 100 µM and the TGI [12] was over 100 µM. For the same molecule, the TGI [13] was over 100 µM, the TGI [14] was over 100 µM and the TGI [15] was over 100 µM. For the same molecule, the TGI [16] was over 100 µM, the TGI [17] was over 100 µM and the TGI [18] was over 100 µM. For the same molecule, the TGI [19] was over 66.7 µM, the TGI [20] was over 100 µM and the TGI [21] was over 100 µM. For the same molecule, the TGI [22] was over 100 µM, the TGI [23] was over 100 µM and the TGI [24] was over 100 µM. For the same molecule, the TGI [25] was over 100 µM, the TGI [26] was over 100 µM and the TGI [27] was over 100 µM. The TGI [28] was over 100 µM, the TGI [29] was over 100 µM and the TGI [30] was over 100 µM. The TGI [31] was over 100 µM, the TGI [32] was over 100 µM and the TGI [33] was over 100 µM. The TGI [34] was over 100 µM, the TGI [35] was over 100 µM and the TGI [36] was 72.7 µM. It also gave a TGI [37] of over 100 µM, a TGI [38] of over 100 µM and a TGI [39] of over 100 µM. For the same molecule, the TGI [40] was over 100 µM, the TGI [41] was over 100 µM and the TGI [42] was over 100 µM. For the same molecule, the TGI [43] was over 100 µM, the TGI [44] was over 100 µM and the TGI [45] was over 100 µM. For the same molecule, the TGI [46] was over 100 µM, the TGI [47] was over 100 µM and the TGI [48] was over 100 µM. The TGI [49] was over 100 µM, the TGI [50] was 99.3 µM and the TGI [51] was over 100 µM. The TGI [52] was over 100 µM, the TGI [53] was over 100 µM and the TGI [54] was over 100 µM. The TGI [55] was over 100 µM, the TGI [56] was over 100 µM and the TGI [57] was 54.9 µM. It also gave a TGI [58] of over 100 µM and a TGI [59] of over 100 µM.
`CCC(C)NC(=S)N/N=C(\C)c1nc2ncccc2[nH]1` (stereo unspecified) gave a TGI [1] of over 100 µM, a TGI [2] of over 100 µM and a TGI [3] of over 100 µM. For the same molecule, the TGI [4] was over 75.6 µM, the TGI [5] was over 100 µM and the TGI [6] was 97.8 µM. It also gave a TGI [7] of over 79.5 µM, a TGI [8] of over 100 µM and a TGI [9] of over 100 µM. The TGI [10] was over 100 µM, the TGI [11] was over 72.3 µM and the TGI [12] was over 100 µM. It also gave a TGI [13] of over 100 µM, a TGI [14] of over 100 µM and a TGI [15] of 38.7 µM. It also gave a TGI [16] of over 100 µM, a TGI [17] of over 100 µM and a TGI [18] of over 56.7 µM. The TGI [19] was 38.7 µM, the TGI [20] was 11.6 µM and the TGI [21] was 79.7 µM. For the same molecule, the TGI [22] was over 100 µM, the TGI [23] was over 100 µM and the TGI [24] was 44.6 µM. The TGI [25] was over 100 µM, the TGI [26] was over 100 µM and the TGI [27] was over 100 µM. For the same molecule, the TGI [28] was over 100 µM, the TGI [29] was over 100 µM and the TGI [30] was 28.6 µM. For the same molecule, the TGI [31] was over 100 µM, the TGI [32] was over 84 µM and the TGI [33] was 70.5 µM. The TGI [34] was over 69.9 µM, the TGI [35] was over 100 µM and the TGI [36] was over 85.6 µM. It also gave a TGI [37] of 49.4 µM, a TGI [38] of over 100 µM and a TGI [39] of over 100 µM. For the same molecule, the TGI [40] was over 100 µM, the TGI [41] was over 100 µM and the TGI [42] was over 73 µM. For the same molecule, the TGI [43] was over 100 µM, the TGI [44] was over 100 µM and the TGI [45] was over 100 µM. For the same molecule, the TGI [46] was over 100 µM, the TGI [47] was over 100 µM and the TGI [48] was over 88.4 µM. For the same molecule, the TGI [49] was over 100 µM, the TGI [50] was 46.6 µM and the TGI [51] was over 100 µM. The TGI [52] was over 100 µM, the TGI [53] was over 100 µM and the TGI [54] was over 100 µM. The TGI [55] was over 100 µM, the TGI [56] was over 100 µM and the TGI [57] was over 100 µM. For the same molecule, the TGI [58] was 62.6 µM and the TGI [59] was over 100 µM.
Molecule `CCCCCCCCCCCC(=O)NCc1ccc(OC(=O)CCCCCCCCCCC)c(OC)c1` has a TGI [1] of over 100 µM, a TGI [2] of over 100 µM and a TGI [3] of over 100 µM. The TGI [4] was over 100 µM, the TGI [5] was over 100 µM and the TGI [6] was over 100 µM. It also gave a TGI [7] of over 100 µM, a TGI [8] of over 100 µM and a TGI [9] of over 100 µM. It also gave a TGI [10] of over 100 µM, a TGI [11] of over 100 µM and a TGI [12] of over 100 µM. The TGI [13] was over 57.3 µM, the TGI [14] was over 100 µM and the TGI [15] was over 100 µM. It also gave a TGI [16] of over 100 µM, a TGI [17] of 97.9 µM and a TGI [18] of over 100 µM. The TGI [19] was 11.6 µM, the TGI [20] was over 100 µM and the TGI [21] was over 100 µM. It also gave a TGI [22] of over 100 µM, a TGI [23] of over 100 µM and a TGI [24] of over 100 µM. The TGI [25] was over 100 µM, the TGI [26] was over 100 µM and the TGI [27] was over 100 µM. The TGI [28] was over 100 µM, the TGI [29] was over 100 µM and the TGI [30] was over 100 µM. For the same molecule, the TGI [31] was over 100 µM, the TGI [32] was over 100 µM and the TGI [33] was 16.7 µM. The TGI [34] was over 100 µM, the TGI [35] was over 100 µM and the TGI [36] was over 92.8 µM. It also gave a TGI [37] of over 100 µM, a TGI [38] of over 100 µM and a TGI [39] of 12.2 µM. It also gave a TGI [40] of over 100 µM, a TGI [41] of over 100 µM and a TGI [42] of over 100 µM. It also gave a TGI [43] of over 100 µM, a TGI [44] of over 72.4 µM and a TGI [45] of over 100 µM. The TGI [46] was over 100 µM, the TGI [47] was over 100 µM and the TGI [48] was over 100 µM. It also gave a TGI [49] of over 100 µM, a TGI [50] of over 100 µM and a TGI [51] of over 100 µM. For the same molecule, the TGI [52] was over 100 µM, the TGI [53] was over 100 µM and the TGI [54] was over 100 µM. The TGI [55] was over 100 µM, the TGI [56] was over 100 µM and the TGI [57] was 37.8 µM. It also gave a TGI [58] of over 100 µM and a TGI [59] of over 100 µM.
`Cc1ccc(NC(=O)CC(=O)N2N=C(N(C)c3ccccc3)CC2c2ccccc2)cc1` (stereo unspecified) showed a TGI [1] of over 100 µM, a TGI [2] of over 100 µM and a TGI [3] of over 100 µM. The TGI [4] was over 100 µM, the TGI [5] was over 100 µM and the TGI [6] was over 100 µM. It also gave a TGI [7] of over 100 µM, a TGI [8] of over 100 µM and a TGI [9] of over 100 µM. The TGI [10] was over 100 µM, the TGI [11] was over 100 µM and the TGI [12] was over 100 µM. The TGI [13] was over 100 µM, the TGI [14] was over 100 µM and the TGI [15] was over 100 µM. The TGI [16] was over 100 µM, the TGI [17] was over 100 µM and the TGI [18] was over 100 µM. The TGI [19] was over 100 µM, the TGI [20] was over 100 µM and the TGI [21] was over 100 µM. For the same molecule, the TGI [22] was over 100 µM, the TGI [23] was over 100 µM and the TGI [24] was over 100 µM. For the same molecule, the TGI [25] was over 100 µM, the TGI [26] was over 100 µM and the TGI [27] was over 100 µM. It also gave a TGI [28] of over 100 µM, a TGI [29] of over 100 µM and a TGI [30] of over 100 µM. The TGI [31] was over 100 µM, the TGI [32] was over 100 µM and the TGI [33] was over 100 µM. The TGI [34] was over 100 µM, the TGI [35] was over 100 µM and the TGI [36] was over 100 µM. It also gave a TGI [37] of over 100 µM, a TGI [38] of over 100 µM and a TGI [39] of over 100 µM. The TGI [40] was over 100 µM, the TGI [41] was over 100 µM and the TGI [42] was over 100 µM. It also gave a TGI [43] of over 100 µM, a TGI [44] of over 100 µM and a TGI [45] of over 100 µM. For the same molecule, the TGI [46] was over 100 µM, the TGI [47] was over 100 µM and the TGI [48] was over 100 µM. It also gave a TGI [49] of 77.9 µM, a TGI [50] of over 100 µM and a TGI [51] of over 100 µM. For the same molecule, the TGI [52] was over 100 µM, the TGI [53] was over 100 µM and the TGI [54] was over 100 µM. It also gave a TGI [55] of over 100 µM, a TGI [56] of over 100 µM and a TGI [57] of over 100 µM. It also gave a TGI [58] of over 100 µM and a TGI [59] of over 100 µM.
